As usually defined, the Kd is the concentration at which binding is half-saturated. Read a high Kd as lower affinity.

SMILES strings stand for the structures.

Results on 1 compound are retold here after PMC11923874, “Integration of Phytomelatonin Signaling With Jasmonic Acid in Wound‐induced Adventitious Root Regeneration” (Advanced Science, 2025).

The target in experiment [1] is T1, SlPMTR1.
T1 construct: 6xHis-MBP-SlPMTR1-GFP fusion, pMAL-c2, E. coli Rosetta (DE3), Ni-NTA purified; seven-transmembrane protein; native length 300 residues (fragments 1-134 and 135-300); tags kept
As to the kind of experiment: microscale thermophoresis (GFP fusion). As to conditions: 22 °C, 30 min incubation; His-MBP-GFP fusion protein at 1 mg/ml. The class given is binding, Solanum lycopersicum.

Experiment [2] concerns the target T2, SlPMTR2 (Solanum lycopersicum, UniProt A0A3Q7GXJ6).
T2 construct: gene LOC101260652; 6xHis-MBP-SlPMTR2-GFP fusion, pMAL-c2, E. coli Rosetta (DE3), Ni-NTA purified; seven-transmembrane protein; native length 309 residues (fragments 1-140 and 141-309); tags kept
T2 sequence (A0A3Q7GXJ6 1-309): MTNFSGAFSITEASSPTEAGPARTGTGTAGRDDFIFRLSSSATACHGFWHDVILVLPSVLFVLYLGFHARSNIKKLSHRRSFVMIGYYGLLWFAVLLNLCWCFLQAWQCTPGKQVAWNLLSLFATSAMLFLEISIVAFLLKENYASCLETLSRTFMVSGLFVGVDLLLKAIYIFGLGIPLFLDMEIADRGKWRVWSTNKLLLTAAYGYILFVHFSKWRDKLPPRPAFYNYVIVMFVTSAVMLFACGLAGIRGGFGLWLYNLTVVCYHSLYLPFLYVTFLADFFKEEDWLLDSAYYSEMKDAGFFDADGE
Nature of the experiment: microscale thermophoresis (GFP fusion). The format is binding. (In MST a laser heats a spot of the sample, and binding alters the fluorescence response.)

On to `COc1ccc2[nH]cc(CCNC(C)=O)c2c1` [melatonin], for which the figures for the Kd in experiment [1] and in experiment [2] were 0.0507 µM and 0.419 µM, respectively.
